# Earlier results in article PMC9516332 (Frontiers in Oncology, 2022).
# Like-named read-outs stand apart in the source and are kept apart here.
# Legend:
# Details in all cases: cited from earlier work
# [1] = target: T1, panel of 255 wild-type kinases (Homo sapiens, UniProt Q9UHD2)
# T1 sequence (Q9UHD2 1-729): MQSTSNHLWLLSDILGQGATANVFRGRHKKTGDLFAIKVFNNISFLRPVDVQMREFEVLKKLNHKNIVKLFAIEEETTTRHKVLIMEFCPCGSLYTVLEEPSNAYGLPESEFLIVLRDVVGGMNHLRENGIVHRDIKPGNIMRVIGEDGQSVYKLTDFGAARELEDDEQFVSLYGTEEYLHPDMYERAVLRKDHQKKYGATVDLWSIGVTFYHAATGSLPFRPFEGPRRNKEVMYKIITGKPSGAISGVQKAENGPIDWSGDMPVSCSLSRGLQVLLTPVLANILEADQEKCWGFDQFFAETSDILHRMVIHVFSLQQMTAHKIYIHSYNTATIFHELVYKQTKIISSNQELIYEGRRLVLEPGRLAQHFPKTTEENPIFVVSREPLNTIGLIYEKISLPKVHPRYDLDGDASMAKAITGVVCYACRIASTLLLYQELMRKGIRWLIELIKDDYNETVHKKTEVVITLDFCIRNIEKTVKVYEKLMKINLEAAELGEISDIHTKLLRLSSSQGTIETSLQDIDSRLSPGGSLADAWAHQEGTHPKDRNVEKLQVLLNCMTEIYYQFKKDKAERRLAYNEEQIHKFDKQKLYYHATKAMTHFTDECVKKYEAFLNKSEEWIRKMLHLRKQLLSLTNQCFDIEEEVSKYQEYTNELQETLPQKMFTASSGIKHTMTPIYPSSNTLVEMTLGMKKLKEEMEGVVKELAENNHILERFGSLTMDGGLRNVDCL
# [2] = target: panel of 255 wild-type kinases (Homo sapiens, UniProt Q9P289)
# [3] = target: T2, panel of 255 wild-type kinases (Homo sapiens, UniProt Q02156)
# T2 sequence (Q02156 1-737): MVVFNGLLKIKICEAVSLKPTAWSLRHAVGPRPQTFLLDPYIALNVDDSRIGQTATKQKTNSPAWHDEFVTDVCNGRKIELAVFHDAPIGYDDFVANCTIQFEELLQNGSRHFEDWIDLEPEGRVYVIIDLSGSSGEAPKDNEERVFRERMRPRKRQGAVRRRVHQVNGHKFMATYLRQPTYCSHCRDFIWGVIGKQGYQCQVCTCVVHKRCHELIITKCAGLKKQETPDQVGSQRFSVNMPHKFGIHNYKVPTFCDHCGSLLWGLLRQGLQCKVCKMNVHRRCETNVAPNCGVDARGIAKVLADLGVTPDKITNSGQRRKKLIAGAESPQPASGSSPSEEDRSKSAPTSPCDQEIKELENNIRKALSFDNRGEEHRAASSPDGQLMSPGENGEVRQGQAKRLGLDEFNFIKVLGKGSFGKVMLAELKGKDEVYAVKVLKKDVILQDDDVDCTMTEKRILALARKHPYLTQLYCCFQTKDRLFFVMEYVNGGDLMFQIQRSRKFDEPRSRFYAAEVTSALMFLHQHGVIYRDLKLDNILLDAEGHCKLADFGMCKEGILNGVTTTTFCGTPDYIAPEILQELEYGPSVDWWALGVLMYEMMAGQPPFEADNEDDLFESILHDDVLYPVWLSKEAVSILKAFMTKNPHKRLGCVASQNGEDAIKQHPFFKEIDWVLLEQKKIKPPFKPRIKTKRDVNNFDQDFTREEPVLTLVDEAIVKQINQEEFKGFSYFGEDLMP
# [4] = target: T3, panel of 255 wild-type kinases (Homo sapiens, UniProt Q9UQB9)
# T3 sequence (Q9UQB9 1-309): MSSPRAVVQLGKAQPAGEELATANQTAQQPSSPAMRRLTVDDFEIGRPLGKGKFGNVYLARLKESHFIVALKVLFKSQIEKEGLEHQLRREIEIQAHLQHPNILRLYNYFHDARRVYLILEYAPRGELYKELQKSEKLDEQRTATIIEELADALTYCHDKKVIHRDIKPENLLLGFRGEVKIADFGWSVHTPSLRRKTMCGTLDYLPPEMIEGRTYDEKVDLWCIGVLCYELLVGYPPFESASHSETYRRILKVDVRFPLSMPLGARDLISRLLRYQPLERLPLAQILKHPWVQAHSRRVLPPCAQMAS
# [5] = target: panel of 255 wild-type kinases (Homo sapiens, UniProt P51617)
# [6] = target: panel of 255 wild-type kinases (Homo sapiens, UniProt P45983)
# [7] = target: T4, panel of 255 wild-type kinases (Homo sapiens, UniProt Q05513)
# T4 sequence (Q05513 1-592): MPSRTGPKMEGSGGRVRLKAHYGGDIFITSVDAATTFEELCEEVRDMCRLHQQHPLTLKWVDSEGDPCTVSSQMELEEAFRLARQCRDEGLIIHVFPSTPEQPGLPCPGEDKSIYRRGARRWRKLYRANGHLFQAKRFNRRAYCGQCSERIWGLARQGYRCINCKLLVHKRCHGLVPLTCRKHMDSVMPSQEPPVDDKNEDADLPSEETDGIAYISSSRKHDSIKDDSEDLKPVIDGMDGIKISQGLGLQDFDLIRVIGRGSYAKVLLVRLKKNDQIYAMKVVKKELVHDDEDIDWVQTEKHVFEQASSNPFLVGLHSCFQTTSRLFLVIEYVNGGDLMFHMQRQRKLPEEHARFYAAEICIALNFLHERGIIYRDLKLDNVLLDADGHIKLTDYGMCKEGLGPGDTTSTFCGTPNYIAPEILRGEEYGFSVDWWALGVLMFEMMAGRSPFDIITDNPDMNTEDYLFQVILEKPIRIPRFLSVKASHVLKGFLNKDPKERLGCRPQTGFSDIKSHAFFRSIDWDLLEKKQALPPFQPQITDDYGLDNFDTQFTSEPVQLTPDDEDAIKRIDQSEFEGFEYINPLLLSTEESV
# [8] = kinase TBK1, 1 µmol/L single concentration, ref DOI: 10.1158/1535-7163.MCT-18-0877
# [9] = MST4, 1 µmol/L single concentration, ref DOI: 10.1158/1535-7163.MCT-18-0877
# [10] = kinase PKCε, 1 µmol/L single concentration, ref DOI: 10.1158/1535-7163.MCT-18-0877
# [11] = AurC kinase assay, 1 µmol/L single concentration, ref DOI: 10.1158/1535-7163.MCT-18-0877
# [12] = kinase IRAK1, 1 µmol/L single concentration, ref DOI: 10.1158/1535-7163.MCT-18-0877
# [13] = kinase JNK1, 1 µmol/L single concentration, ref DOI: 10.1158/1535-7163.MCT-18-0877
# [14] = kinase PKCζ, 1 µmol/L single concentration, ref DOI: 10.1158/1535-7163.MCT-18-0877
# [15] = kinase TBK1, 1 µmol/L single concentration, ref DOI: 10.1371/journal.pone.0092146
# [16] = MST4, 1 µmol/L single concentration, ref DOI: 10.1371/journal.pone.0092146
# [17] = kinase PKCε, 1 µmol/L single concentration, ref DOI: 10.1371/journal.pone.0092146
# [18] = AurC kinase assay, 1 µmol/L single concentration, ref DOI: 10.1371/journal.pone.0092146
# [19] = kinase IRAK1, 1 µmol/L single concentration, ref DOI: 10.1371/journal.pone.0092146
# [20] = kinase JNK1, 1 µmol/L single concentration, ref DOI: 10.1371/journal.pone.0092146
# [21] = kinase PKCζ, 1 µmol/L single concentration, ref DOI: 10.1371/journal.pone.0092146
SMILES,"%-inhibition at 1 µmol/L, TBK1 [1, 8] [%]","%-inhibition, MST4 [2, 9] [%]","%-inhibition at 1 µmol/L, PKCε [3, 10] [%]","%-inhibition AurC [4, 11] [%]","%-inhibition at 1 µmol/L, IRAK1 [5, 12] [%]","%-inhibition at 1 µmol/L, JNK1 [6, 13] [%]","%-inhibition at 1 µmol/L, PKCζ [7, 14] [%]",also measured
CC#CC(=O)N1CCC[C@H]1c1nc(-c2ccc(C(=O)Nc3ccccn3)cc2)c2c(N)nccn12 [acalabrutinib],2.14,-6.42,-9,7,-7,-0.882,-5.44,–
CCc1cc2c(cc1N1CCC(N3CCOCC3)CC1)C(C)(C)c1[nH]c3cc(C#N)ccc3c1C2=O [alectinib],6,-7,10,2.65,92,3.24,10,–
COc1cc(N2CCC(N3CCN(C)CC3)CC2)ccc1Nc1ncc(Cl)c(Nc2ccccc2P(C)(C)=O)n1 [brigatinib],–,–,–,–,–,–,–,"%-inhibition at 1 µmol/L, TBK1 [1]: 23%; %-inhibition, MST4 [2]: -1.25%; %-inhibition at 1 µmol/L, PKCε [3]: 39%; %-inhibition AurC [4]: 44%; %-inhibition at 1 µmol/L, IRAK1 [5]: 69%; %-inhibition at 1 µmol/L, JNK1 [6]: 40%; %-inhibition at 1 µmol/L, PKCζ [7]: 5%"
Cc1cc(Nc2ncc(Cl)c(Nc3ccccc3S(=O)(=O)C(C)C)n2)c(OC(C)C)cc1C1CCNCC1 [ceritinib],4,4,11,3.47,9,9,14,–
O=C(c1ccc(F)c(F)c1Nc1ccc(I)cc1F)N1CC(O)([C@@H]2CCCCN2)C1 [cobimetinib],4,-0.477,4.22,-2.68,0.65,-3,9,–
C[C@@H](Oc1cc(-c2cnn(C3CCNCC3)c2)cnc1N)c1c(Cl)ccc(F)c1Cl [crizotinib],–,–,–,–,–,–,–,"%-inhibition at 1 µmol/L, TBK1 [1, 15]: 1.42%; %-inhibition, MST4 [2, 16]: 0.54%; %-inhibition at 1 µmol/L, PKCε [3, 17]: -7%; %-inhibition AurC [4, 18]: 87%; %-inhibition at 1 µmol/L, IRAK1 [5, 19]: 92%; %-inhibition at 1 µmol/L, JNK1 [6, 20]: 0.431%; %-inhibition at 1 µmol/L, PKCζ [7, 21]: 9%"
CC(C)(C)c1nc(-c2cccc(NS(=O)(=O)c3c(F)cccc3F)c2F)c(-c2ccnc(N)n2)s1 [dabrafenib],–,–,–,–,–,–,–,"%-inhibition at 1 µmol/L, TBK1 [1, 15]: -1.15%; %-inhibition, MST4 [2, 16]: -7%; %-inhibition at 1 µmol/L, PKCε [3, 17]: 5%; %-inhibition AurC [4, 18]: 23%; %-inhibition at 1 µmol/L, IRAK1 [5, 19]: -48%; %-inhibition at 1 µmol/L, JNK1 [6, 20]: -1.12%; %-inhibition at 1 µmol/L, PKCζ [7, 21]: 5%"
C=CC(=O)N1CCC[C@@H](n2nc(-c3ccc(Oc4ccccc4)cc3)c3c(N)ncnc32)C1 [ibrutinib],0.825,1.46,8,7,-11,-2.33,10,–
CO[C@@H]1[C@H](N(C)C(=O)c2ccccc2)C[C@H]2O[C@]1(C)n1c3ccccc3c3c4c(c5c6ccccc6n2c5c31)C(=O)NC4 [midostaurin],98,52,84,100,10,9,-3.41,–
C=CC(=O)Nc1cc(Nc2nccc(-c3cn(C)c4ccccc34)n2)c(OC)cc1N(C)CCN(C)C [osimertinib],9,1.61,-12,2.33,7,-2.12,9.52,–
